The text below walks through data of patent publication US9284324B2, “Phenylpyrrole derivative” (TAISHO PHARMACEUTICAL CO., LTD, priority 2011, dated 2016).

As a reminder, the IC50 is the concentration at which inhibition is half-maximal. A high value points to lower potency. A word on the Kp: it is tissue or fluid exposure divided by exposure in the circulation. By efflux ratio is commonly meant the permeability from basolateral to apical divided by that in the opposite direction, in the common usage.

Values joined by “and” are separate entries in the source; they are usually repeats but may differ in a detail not shown here. Equal values may be shown once. Where only a bound is given, the exact number is not on record here.

One data set deals with T1, H3 receptor (Rattus norvegicus, UniProt Q9QYN8).
T1 construct: The frontal cortex dissected from rats was homogenized; from tissue; host or cells: rat frontal cortex membrane fraction
T1 sequence (Q9QYN8 whole entry): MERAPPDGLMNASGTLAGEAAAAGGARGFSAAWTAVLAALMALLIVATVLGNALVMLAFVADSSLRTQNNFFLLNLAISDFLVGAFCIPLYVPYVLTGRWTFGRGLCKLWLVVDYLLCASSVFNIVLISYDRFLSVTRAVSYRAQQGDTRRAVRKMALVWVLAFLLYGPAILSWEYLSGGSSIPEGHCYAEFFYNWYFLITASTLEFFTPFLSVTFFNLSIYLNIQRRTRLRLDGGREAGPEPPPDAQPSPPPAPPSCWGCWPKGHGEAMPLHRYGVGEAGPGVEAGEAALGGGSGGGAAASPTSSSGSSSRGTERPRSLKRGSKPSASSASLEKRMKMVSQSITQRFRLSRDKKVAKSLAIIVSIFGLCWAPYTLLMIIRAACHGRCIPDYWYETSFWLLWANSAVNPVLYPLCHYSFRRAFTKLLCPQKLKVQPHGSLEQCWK
Kind of data set: Rat H3 receptor binding test (N-α-methyl[3H]histamine). As to conditions: rat frontal cortex membrane fraction, N-α-methyl[3H]histamine 0.75 nM. As for the experimental part:
(Test 1: Rat H3 Receptor Binding Test)
The frontal cortex dissected from rats was homogenized with a Teflon homogenizer in a 50 mM Tris-HCl buffer solution (pH 7.4) containing a protease inhibitor (Complete EDTA-free; Roche Diagnostics) and 5 mM EDTA. The homogenate was centrifuged at 48,000×g for 15 minutes. The supernatant was removed and the pellet was suspended in a 50 mM Tris-HCl buffer solution (pH 7.4) containing 5 mM EDTA and centrifuged at 48,000×g for 15 minutes. The supernatant was removed and the pellet was suspended in a 50 mM Tris-HCl buffer solution (pH 7.4) containing 5 mM EDTA to give a membrane fraction. The membrane fraction (the protein content in the final reaction mixture: 75 μg), N-α-methyl[^3H]histamine (PerkinElmer; final concentration: 0.75 nM) and a test drug were mixed and subjected to reaction at room temperature for an hour. After the end of the reaction, the reaction mixture was suction filtered through a 96-well GF/C filter plate pretreated with 0.3% polyethyleneimine; the filters were then washed five times with a 50 mM Tris-HCl buffer solution (pH 7.4) containing 5 mM EDTA. After the washing, the filters were dried and a scintillator was added to measure the residual radioactivity on the filter with TopCount (PerkinElmer).
The residual radioactivity in the presence of 10 μM thioperamide was taken as indicative of nonspecific binding and the difference from the residual radioactivity in the absence of thioperamide was taken as indicative of specific binding. Each of the test drugs was dissolved and diluted in DMSO at varying concentrations to plot a dose-response curve from the corresponding residual radio activities; the concentration of test drug that inhibited the specific binding by 50% (IC50) was determined from this curve.

Data set [1] is described as follows: Rat in vivo pharmacokinetic study. Also on record: species or system SD rats. As to conditions: for concentration at 1 h / Kp at 1 h: SD, rat, in vivo, po, 3 mg/kg. The procedure: (Test 3: Rat In Vivo Pharmacokinetic Study)
SD rats were given a single oral administration of Compound No. 3, 4 or 7 at a dose of 3 mg/kg and an hour after the administration, the compound's distribution among the plasma, brain, and cerebrospinal fluid was checked. Quantification was effected by a high-performance chromatography/tandem mass spectrometer API 4000 (LC-MS/MS; AB Sciex). As it turned out, Compound Nos. 3, 4 and 7 had good brain/plasma movement ratios of 4.5, 2.9 and 2.2, respectively, with the corresponding intracerebral concentrations of 78.2 ng/g, 7.06 ng/g and 408 ng/g.

For a further data set, the target named is T2, histamine H3 receptor (Rattus norvegicus, UniProt Q9QYN8).
T2 construct: The frontal cortex dissected from rats was homogenized; from tissue; host or cells: rat frontal cortex membrane fraction
T2 sequence (Q9QYN8 whole entry): as above
Kind of data set: [35S]GTP-γ-S binding test. The format is biochemical. The following applies: rat frontal cortex membrane fraction, R(−)-α-methyl histamine 300 nM, [35S]GTP-γ-S 0.3 nM. The procedure: (Test 2: [^35S]GTP-γ-S Binding Test)
The frontal cortex dissected from rats was homogenized with a Teflon homogenizer in a 30 mM Tris-HCl buffer solution (pH 7.4) containing 2.5 mM calcium chloride dihydrate. The homogenate was centrifuged at 48,000×g for 15 minutes. The supernatant was removed and the pellet was suspended in a 30 mM Tris-HCl buffer solution (pH 7.4) containing 2.5 mM calcium chloride dihydrate and centrifuged at 48,000×g for 15 minutes. The supernatant was removed and the pellet was suspended in a 30 mM Tris-HCl buffer solution (pH 7.4) containing 2.5 mM calcium chloride dihydrate and after incubation at 37° C. for 30 minutes, the suspension was centrifuged at 48,000×g for 15 minutes. The resulting supernatant was removed and the pellet was suspended in a 20 mM HEPES buffer solution (pH 7.4) containing 100 mM sodium chloride and 10 mM magnesium chloride to give a membrane fraction. […] After the washing, the filters were dried and a scintillator was added to measure the residual radioactivity on the filter with TopCount (PerkinElmer).
The residual radioactivity in the absence of R(−)-α-methyl histamine was taken as indicative of nonspecific binding and the difference from the residual radioactivity in the presence of R(−)-α-methyl histamine was taken as indicative of specific binding. […]
A general note: GTPγS is a poorly hydrolysed GTP analogue; its binding reports G protein activation.

The target of data set [2] is T3, P-glycoprotein (Human MDR1) (Homo sapiens, UniProt P08183).
T3 construct: expressed in transfected cells; host or cells: LLC-GA5-COL300 (derived from pig kidney LLC-PK1)
T3 sequence (P08183 whole entry): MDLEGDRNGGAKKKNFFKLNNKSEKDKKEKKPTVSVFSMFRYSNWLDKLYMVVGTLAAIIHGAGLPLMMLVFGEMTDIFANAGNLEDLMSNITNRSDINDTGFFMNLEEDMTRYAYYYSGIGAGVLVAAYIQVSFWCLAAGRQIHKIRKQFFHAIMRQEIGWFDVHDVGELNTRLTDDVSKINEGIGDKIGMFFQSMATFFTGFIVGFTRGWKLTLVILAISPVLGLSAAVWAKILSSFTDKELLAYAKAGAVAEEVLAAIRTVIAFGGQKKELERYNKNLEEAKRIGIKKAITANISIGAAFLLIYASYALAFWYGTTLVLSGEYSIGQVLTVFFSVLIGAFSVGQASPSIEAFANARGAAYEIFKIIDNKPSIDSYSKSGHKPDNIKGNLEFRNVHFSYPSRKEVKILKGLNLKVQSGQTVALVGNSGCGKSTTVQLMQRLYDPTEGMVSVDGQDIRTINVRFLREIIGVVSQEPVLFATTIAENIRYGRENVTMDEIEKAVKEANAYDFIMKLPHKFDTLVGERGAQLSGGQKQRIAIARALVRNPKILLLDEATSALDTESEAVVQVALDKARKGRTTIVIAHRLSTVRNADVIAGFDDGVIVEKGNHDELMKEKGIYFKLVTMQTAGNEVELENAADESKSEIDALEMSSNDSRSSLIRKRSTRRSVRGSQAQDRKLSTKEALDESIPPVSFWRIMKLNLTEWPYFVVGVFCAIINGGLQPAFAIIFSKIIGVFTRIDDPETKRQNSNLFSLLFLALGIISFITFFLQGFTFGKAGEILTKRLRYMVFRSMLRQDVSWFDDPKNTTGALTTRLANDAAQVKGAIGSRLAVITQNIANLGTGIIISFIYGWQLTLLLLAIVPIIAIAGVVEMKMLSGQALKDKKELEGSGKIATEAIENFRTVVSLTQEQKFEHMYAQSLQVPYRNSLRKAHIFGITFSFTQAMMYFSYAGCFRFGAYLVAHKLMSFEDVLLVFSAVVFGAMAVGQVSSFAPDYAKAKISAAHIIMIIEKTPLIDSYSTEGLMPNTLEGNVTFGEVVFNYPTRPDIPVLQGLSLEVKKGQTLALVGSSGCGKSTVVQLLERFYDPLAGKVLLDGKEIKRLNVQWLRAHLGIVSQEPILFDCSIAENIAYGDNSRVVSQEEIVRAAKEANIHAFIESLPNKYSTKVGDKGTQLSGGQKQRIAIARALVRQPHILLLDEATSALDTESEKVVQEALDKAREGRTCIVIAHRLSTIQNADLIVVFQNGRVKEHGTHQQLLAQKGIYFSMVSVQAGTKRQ
Kind of data set: P-glycoprotein substrate recognition test. The format is in vitro ADME. As to conditions: ratio of apical→basal and basal→apical membrane permeation coefficients; for efflux ratio at 10 μM: human, LLC-PK1, LLC-GA5-COL300 cells on transwell. The procedure: (Test 4: P-Glycoprotein Substrate Recognition Test)
LLC-GA5-COL300 cells (Human MDR1 expressing system derived from pig kidney derived, cultured renal epithelial cell line LLC-PK1) were cultured on a transwell. Immediately before the test, the culture medium was replaced by Hank's balanced salt solution (HBSS) and the test was then conducted. A solution of an assay compound adjusted to a final concentration of 10 μM was added to the donor side of LLC-GA5-COL300 cells and after the passage of a predetermined period of time, a specified quantity of […] was sampled from the acceptor side. The concentration of the assay compound in the sample was measured by LC-MS/MS. From the amounts of the compound that accumulated and passed into the acceptor side, membrane permeation coefficients (×10^−6 cm/sec) were calculated for apical→basal and basal→apical directions and their relative ratio (efflux ratio) was determined to evaluate the P-glycoprotein substrate recognition.

Setting [3] is: cerebrospinal fluid/plasma movement ratio.
The mark [4] stands for this setting: SD rats, single oral 3 mg/kg, an hour after administration.

For the compound `COC(=O)c1ccn(-c2ccc(OC3CCN(C4CCC4)CC3)cc2)c1` [Compound No. 1, methyl 1-{4-[(1-cyclobutylpiperidin-4-yl)oxy]phenyl}-1H-pyrrole-3-carboxylate], on H3 receptor, the IC50 was found to be 12 nM.

At H3 receptor, `O=C(O)c1ccn(-c2ccc(OC3CCN(C4CCC4)CC3)cc2)c1` [Compound No. 2, 1-{4-[(1-cyclobutylpiperidin-4-yl)oxy]phenyl}-1H-pyrrole-3-carboxylic acid] showed an IC50 of 34 nM.

Take `O=C(c1ccn(-c2ccc(OC3CCN(C4CCC4)CC3)cc2)c1)N1CCC1` [Compound No. 3, azetidin-1-yl (1-{4-[(1-cyclobutylpiperidin-4-yl)oxy]phenyl}-1H-pyrrol-3-yl)methanone]: the concentration at 1 h in data set [1] was 78.2 ng/g and 5.75 ng/mL. Besides, the values for the Kp at 1 h in data set [1] (brain/plasma movement ratio) and in data set [1] (setting [3]) were 4.5 and 0.3, respectively. In addition, the IC50 is ≤ 100 nM on histamine H3 receptor and 1.7 nM on H3 receptor. Besides, in data set [2], the efflux ratio at 10 μM amounted to 1.4.

Consider `Cc1cc(C(=O)N2CCCC2)c(C)n1-c1ccc(OC2CCN(C3CCC3)CC2)cc1` [Compound No. 15, (1-{4-[(1-cyclobutylpiperidin-4-yl)oxy]phenyl}-2,5-dimethyl-1H-pyrrol-3-yl)(pyrrolidin-1-yl)methanone], for which, at H3 receptor, the IC50 was found to be 6.6 nM.

`C[C@@H]1CCCN1CCCOc1ccc(-n2ccc(C(=O)N3CCCC3)c2)cc1` [Compound No. 16, [1-(4-{3-[(2R)-2-methylpyrrolidin-1-yl]propoxy}phenyl)-1H-pyrrol-3-yl](pyrrolidin-1-yl)methanone]: at H3 receptor, the IC50 turned out to be 1.5 nM. Besides, the efflux ratio at 10 μM in data set [2] turned out to be 3.1.

At H3 receptor, `CC(C)N1CCC(Oc2ccc(-n3ccc(C(=O)N4CCCC4)c3)cc2)CC1` [Compound No. 17, (1-{4-[(1-isopropylpiperidin-4-yl)oxy]phenyl}-1H-pyrrol-3-yl)(pyrrolidin-1-yl)methanone] yielded an IC50 of 1.1 nM.

On H3 receptor, `CNC(=O)c1ccn(-c2ccc(OC3CCN(C(C)C)CC3)cc2)c1` [Compound No. 18, 1-{4-[(1-isopropylpiperidin-4-yl)oxy]phenyl}-N-methyl-1H-pyrrole-3-carboxamide] had an IC50 of 38 nM.

For `CC(C)(C)N1CCC(Oc2ccc(-n3ccc(C(=O)N4CCCC4)c3)cc2)CC1` [Compound No. 19, (1-{4-[(1-tert-butylpiperidin-4-yl)oxy]phenyl}-1H-pyrrol-3-yl)(pyrrolidin-1-yl)methanone], at H3 receptor, the IC50 worked out at 1.7 nM.

Compound `CNC(=O)c1ccn(-c2ccc(OC3CCN(C(C)(C)C)CC3)cc2)c1` [Compound No. 20, 1-{4-[(1-tert-butylpiperidin-4-yl)oxy]phenyl}-N-methyl-1H-pyrrole-3-carboxamide] came in with a 50% inhibitory concentration (IC50) at H3 receptor of 21 nM.

Compound `CN(C)C(=O)c1ccn(-c2ccc(OC3CCN(C4CCC4)CC3)cc2)c1` [compound 6] returned an IC50 on H3 receptor of 3.2 nM. For the same compound, in data set [2], the efflux ratio at 10 μM is 1.2.

As for `CNC(=O)c1ccn(-c2ccc(OC3CCN(C4CCC4)CC3)cc2)c1` [compound 7, 1-{4-[(1-cyclobutylpiperidin-4-yl)oxy]phenyl}-N-methyl-1H-pyrrole-3-carboxamide], the concentration at 1 h in data set [1] was 408 ng/g and 50.5 ng/mL. Besides, the Kp at 1 h in data set [1] (brain/plasma movement ratio) was 2.2; in data set [1] (setting [3]), 0.3. Further, the IC50 at histamine H3 receptor is ≤ 100 nM; on H3 receptor it was 5.9 nM. In data set [2], the efflux ratio at 10 μM stood at 1.

The compound `NC(=O)c1ccn(-c2ccc(OC3CCN(C4CCC4)CC3)cc2)c1` [compound 8, 1-{4-[(1-cyclobutylpiperidin-4-yl)oxy]phenyl}-1H-pyrrole-3-carboxamide] yielded an IC50 on H3 receptor of 9.5 nM. Also, the efflux ratio at 10 μM in data set [2] is 1.6.

Consider `O=C(c1ccn(-c2ccc(OC3CCN(C4CCC4)CC3)cc2)c1)N1CCOCC1` [compound 9, (1-{4-[(1-cyclobutylpiperidin-4-yl)oxy]phenyl}-1H-pyrrol-3-yl)(morpholin-4-yl)methanone], for which the IC50 on H3 receptor stood at 2.5 nM. The efflux ratio at 10 μM in data set [2] is 1.6.

`C[C@@H]1CN(C(=O)c2ccn(-c3ccc(OC4CCN(C5CCC5)CC4)cc3)c2)C[C@H](C)O1` [compound 10] gave an IC50 on H3 receptor of 6.8 nM.

As for `O=C(c1ccn(-c2ccc(OC3CCN(C4CCC4)CC3)cc2)c1)N1CC2(COC2)C1` [compound 11, (1-{4-[(1-cyclobutylpiperidin-4-yl)oxy]phenyl}-1H-pyrrol-3-yl)(2-oxa-6-azaspiro[3.3]hepta-6-yl)methanone], on H3 receptor, the IC50 was 1 nM. This IC50 lies about 6.8-fold lower than the previous one.

`CC(C)(C)NC(=O)c1ccn(-c2ccc(OC3CCN(C4CCC4)CC3)cc2)c1` [compound 12, N-tert-butyl-1-{4-[(1-cyclobutylpiperidin-4-yl)oxy]phenyl}-1H-pyrrole-3-carboxamide] had an IC50 on H3 receptor of 5.2 nM.

Compound `O=C(NC1CCC1)c1ccn(-c2ccc(OC3CCN(C4CCC4)CC3)cc2)c1` [compound 13, N-cyclobutyl-1-{4-[(1-cyclobutylpiperidin-4-yl)oxy]phenyl}-1H-pyrrole-3-carboxamide] showed an IC50 on H3 receptor of 3.7 nM.

In turn, “(1-{4-[(1-cyclobutylpiperidin-4-yl)oxy]phenyl}-1H-pyrrol-3-yl)(piperidin-1-yl)methanol [compound 5]” displayed an IC50 on H3 receptor of 3.2 nM.

For the compound “(1-{4-[(1-cyclobutylpiperidin-4-yl)oxy]phenyl}-1H-pyrrol-3-yl)(pyrrolidin-1-yl)methanol [compound 4]”, in data set [1] (setting [4]), the brain/plasma movement ratio is 2.9 and the intracerebral concentration was determined as 7.06 ng/g. For the same compound, at H3 receptor, the IC50 came out at 1.1 nM. For the same compound, the Efflux ratio in data set [2] (LLC-GA5-COL300 cells on transwell, 10 μM) was 1.3.
